What is called IC50 is the concentration that gives 50% inhibition. Low readings indicate inhibition by little substance, high ones a need for much substance. What is called ED50 is the dose that gives a 50% effect, or the effect in half of the subjects.

The target of assay [1] is T1, M2-type muscarinic cholinergic receptor (Cavia porcellus, UniProt H0VRN8).
T1 construct: on a homogenate of smooth muscle of guinea-pig ileum; from tissue; host or cells: guinea-pig ileum smooth muscle homogenate
T1 sequence (H0VRN8 1-466): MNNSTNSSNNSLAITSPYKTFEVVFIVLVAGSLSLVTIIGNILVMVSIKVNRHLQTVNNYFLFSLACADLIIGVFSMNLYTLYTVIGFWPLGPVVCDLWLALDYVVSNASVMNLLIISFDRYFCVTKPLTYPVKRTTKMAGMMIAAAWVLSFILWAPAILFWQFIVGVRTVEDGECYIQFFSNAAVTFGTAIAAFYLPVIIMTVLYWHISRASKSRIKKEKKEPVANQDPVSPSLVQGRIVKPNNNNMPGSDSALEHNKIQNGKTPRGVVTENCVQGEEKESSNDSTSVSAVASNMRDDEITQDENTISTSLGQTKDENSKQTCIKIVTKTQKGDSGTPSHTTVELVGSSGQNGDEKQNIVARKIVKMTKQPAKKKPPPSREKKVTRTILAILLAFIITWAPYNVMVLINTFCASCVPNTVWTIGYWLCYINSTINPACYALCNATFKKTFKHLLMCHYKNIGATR
Description: Test for affinity for the M2-type muscarinic cholinergic receptor: displacement of [3H]N-methylscopolamine on smooth muscle of guinea-pig ileum. In kind it is binding. As to conditions: guinea-pig ileum smooth muscle homogenate, 0.3 nM [3H]NMS, 20 min at 30° C., pH 7.5. The source says: (§1) The M1 -type receptors are concentrated in certain areas of the brain, such as the hippocampus, the cerebral cortex and the striatum, and also in the sympathetic ganglia. These binding sites can be selectively labeled with [^3 H]pirenzepine ([^3 H]PZ). The M2 -type receptors predominate in the heart and ileum and can be labeled with [^3 H]N-methylscopolamine ([^3 H]NMS). To determine the selectivity of our molecules towards the M1 and M2 sites, we studied their interaction in vitro with [^3 H]PZ and [^3 H]NMS bound with a high affinity to membranes of rat hippocampus and membranes of smooth muscle of guinea-pig ileum, respectively.
The interaction with M2 -type muscarinic receptors was studied by in vitro measurement, on a homogenate of smooth muscle of guinea-pig ileum, of the displacement of tritiated N-methylscopolamine ([^3 H]NMS) from its specific binding sites. Aliquots (50 μl) of a 0.625% (w/v) homogenate of smooth muscle of guinea-pig ileum in MEPES buffer (20 mM) containing NaCl (100 mM) and MgCl2 (10 mM) (final pH: 7.5) are incubated for 20 min at 30° C. in the presence of [^3 H]NMS ([…]; final concentration: 0.3 nM) and increasing concentrations of products to be tested. The final volume is 1 ml. The reaction is stopped by centrifugation for 5 min at 15,000 × g. The non-specific binding is determined in the presence of 10 μmol/l of atropine sulfate (Ref.: Hammer R., Berrie C. P., Birdsall N. I. M., Burgen A. S. V. and Hulme E. C., Nature, 283, 90-92, 1980; Hulme E. C., Birdsall N.1.M., Burgen A. S. V. and Mettha P., Mol. pharmacol., 14, 737-750, 1978).
(§2) Table 4 indicates the affinities of the products of the invention for M1 and M2 receptors. The results are expressed as 50% inhibitory concentrations (IC50), i.e. the concentration (in μM) which causes a 50% displacement placement of the tritiated ligand bound to the membrane receptors. The IC50 for displacement of ^3 H-pirenzepine represents the affinity for the M1 receptor; the IC50 for displacement of 3H-NMS represents the affinity for the M2 receptor.

Assay [2] concerns the target T2, M1-type muscarinic cholinergic receptor (Rattus norvegicus, UniProt P08482).
T2 sequence (P08482 1-460): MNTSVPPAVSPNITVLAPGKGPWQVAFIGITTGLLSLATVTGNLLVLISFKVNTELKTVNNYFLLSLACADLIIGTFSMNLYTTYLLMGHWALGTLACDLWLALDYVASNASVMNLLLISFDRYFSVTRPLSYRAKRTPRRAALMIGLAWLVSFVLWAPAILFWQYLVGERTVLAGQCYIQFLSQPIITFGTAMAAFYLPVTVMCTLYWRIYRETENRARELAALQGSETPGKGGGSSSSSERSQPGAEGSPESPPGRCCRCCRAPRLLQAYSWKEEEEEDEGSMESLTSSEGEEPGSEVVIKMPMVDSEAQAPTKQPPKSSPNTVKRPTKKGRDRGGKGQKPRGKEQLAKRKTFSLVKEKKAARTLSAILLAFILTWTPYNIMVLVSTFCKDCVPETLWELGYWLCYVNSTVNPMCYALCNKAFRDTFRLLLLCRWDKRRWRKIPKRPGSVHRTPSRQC
Description: Test for affinity for the M1-type muscarinic cholinergic receptor: displacement of [3H]pirenzepine on rat hippocampus homogenate. In kind it is binding. The note with it: for IC50: rat hippocampus homogenate, 1 nM [3H]PZ, 2 h at 4° C., pH 7.40; for r = (M2 /M1): ratio of IC50 M2 (3H-NMS, guinea-pig ileum) to IC50 M1 (3H-pirenzepine, rat hippocampus).
Source text: as §1
The interaction of the molecules with M1 -type muscarinic receptors was studied by in vitro measurement, on a homogenate of rat hippocampus, of the displacement of tritiated pirenzepine ([^3 H]PZ) from its specific binding sites. Aliquots (10 μl) of a 5% (w/v) homogenate of rat hippocampus in an Na2 HPO4 buffer (50 mM, pH 7.40) are incubated for 2 h at 4° C. in the presence of [^3 H]pZ ([…]; final concentration: 1 nM) and increasing concentrations of products to be studied. The final volume is 2 ml. The reaction is stopped by centrifugation for 10 min at 50,000 × g. After decantation and washing of the residues, the bound radioactivity is counted by liquid scintillation. The non-specific binding is determined in the presence of 10 μmol/l of atropine sulfate. The 50% inhibitory concentration (IC50) is determined graphically (Ref.: Watson J. D., Roeskoe W. R. and Yamamura H.1., Life Sci., 31, 2019-2029, 1982).
as §2
On the technique in general: Loss of bound radioactivity is the signal in a displacement assay; it reports binding, not function.

Assay [3] has as its target T3, M1 central muscarinic cholinergic receptors (Mus musculus, UniProt P12657).
T3 construct: The intrastriatal injection of PZ into mice induces rotational behavior; from tissue; host or cells: right striatum of living female mice (Swiss, CD 1)
T3 sequence (P12657 1-460): T2 sequence (P08482 1-460) with S309P
The experiment in a line: Antagonism of rotational behavior induced by intrastriatal injection of pirenzepine in mice. It counts as in vivo, mice (female, Swiss, CD 1). The note with it: ip, read-out: Pirenzepine antagonism ED50. Here is the method: Pirenzepine (PZ) is a specific antagonist of M1 central muscarinic cholinergic receptors. The intrastriatal injection of PZ into mice induces rotational behavior. The antagonism of this behavior by the products according to the invention was studied.
The products according to the invention are injected intraperitoneally (i.p.) after solubilization in distilled water or suspension in a 5% solution of gum arabic. The control animals receive an injection of the pure solvent under the same conditions.
The animals used are female mice (Swiss, CD 1, Charles River, France) with a body weight of between 25 and 30 grams.
Pirenzepine is dissolved in a phosphate buffer; the pH of the solution is 6.
The products to be studied or their solvents are injected intraperitoneally, in a volume of 0.4 ml per 20 g of body weight, 15 minutes before a direct injection of pirenzepine at a dose of […] into the right striatum of the mouse, according to the method described by p.
The number of contralateral rotations (rotations in the opposite direction to the side injected) was counted for three 2-minute periods after the injection of pirenzepine: minutes 2 to 4, 8 to 10 and 13 to 15. Each treatment includes 3 to 4 doses and 10 animals per dose. For each treatment, the total number of rotations and the percentage antagonism compared with the control group are calculated.

Where [4] appears, read: mice, i.p. 15 minutes before intrastriatal pirenzepine, 50% reduction in number of rotations.

Residue numbers refer to the chain shown, from its start. Several values for one entry are separate records, joined by “and”; a condition that tells them apart may be missing. Identical values can stand only once. Counter-ions that a name gives are not always drawn. Like-named read-outs stand apart in the source and are kept apart here.

Turning to `CCN(CC)CCSc1cc2c(nn1)-c1ccccc1CC2.Cl` [SR 95743 A, 3-(2-Diethylaminoethylthio)-5,6-dihydrobenzo[h]cinnoline hydrochloride], the IC50 in assay [1] turned out to be 10000 nM. In assay [2], the IC50 was 700 nM and the “r = (M2 /M1)” value is 14. Further, the ED50 in assay [3] was determined as 8 mg/kg.
For `CCN1CCCC1CNc1cc2c(nn1)-c1ccccc1CCC2` (stereo not shown) [SR 95879 A, 3-[(1-Ethylpyrrolidin-2-yl)methylamino]-6,7-dihydro-5H-benzocyclohepta-5,6-c]pyridazine dihydrochloride], in assay [1], the IC50 came to 1000 nM. Besides, in assay [2], the IC50 worked out at 140 nM and the “r = (M2 /M1)” value was determined as 7. The ED50 in assay [3] (setting [4]) came to 0.3 mg/kg.
As to `CN(C)CCOc1cc2c(nn1)-c1ccccc1CC2.Cl` [SR 95745 A, 3-(2-Dimethylaminoethoxy)-5,6-dihydrobenzo[h]cinnoline hydrochloride], the IC50 in assay [1] came to 80000 nM; in assay [2], 3900 nM. Also, the “r = (M2 /M1)” value in assay [2] came to 21. For the same compound, the ED50 in assay [3] was determined as 8 mg/kg.
For `CCN(CC)CCNc1cc2ccc3ccccc3c2nn1.Cl.Cl` [SR 96055 A, 3-(2-Diethylaminoethylamino)benzo[h]cinnoline dihydrochloride] the same measures were 17000 nM, 320 nM, 53 and 3 mg/kg.
Consider `c1ccc2c(c1)CCCc1cc(NCCN3CCCC3)nnc1-2` [SR 95883 A], for which the IC50 in assay [1] is 4500 nM. Moreover, in assay [2], the IC50 came out at 130 nM and the “r = (M2 /M1)” value was determined as 35. Besides, in assay [3] (setting [4]), the ED50 was 3 mg/kg.
For `CCN(CC)CCNc1cc2c(nn1)-c1ccccc1CCC2` [SR 95640 A] the same measures were 2000 nM, 50 nM, 40 and 3 mg/kg.
As for `CCN(CC)CCSc1cc2c(nn1)-c1ccccc1CCC2` [SR 95820 A, 3-(2-Diethylaminoethylthio)-6,7-dihydro-5H-benzocyclohepta[ [drawing 52] 5,6-c]pyridazine hydrochloride], in assay [1], the IC50 was 2000 nM. Moreover, in assay [2], the IC50 turned out to be 70 nM and the “r = (M2 /M1)” value was 29. In addition, the ED50 in assay [3] (setting [4]) is 8 mg/kg.
Consider `CCN(CC)CCNc1cc2c(nn1)-c1ccccc1CC2.Cl.Cl` [SR 96054 A, 3-(2-Diethylaminoethylamino)-5,6-dihydrobenzo[h]cinnoline dihydrochloride], for which, in assay [1], the IC50 was determined as 7500 nM. In assay [2], the IC50 amounted to 210 nM and the “r = (M2 /M1)” value turned out to be 36. Further, in assay [3], the ED50 is 3 mg/kg.
Turning to `CN1CCC(Nc2cc3c(nn2)-c2ccccc2CCC3)CC1` [SR 96093 A, 3-(1-Methylpiperidin-4-yl)amino]-6,7-dihydro-5H-benzocyclohepta[5,6-c]pyridazine dihydrochloride], in assay [1], the IC50 came out at 50000 nM. In assay [2], the IC50 is 1200 nM and the “r = (M2 /M1)” value is recorded as 42. Besides, the ED50 in assay [3] (setting [4]) came out at 15 mg/kg.
For `CCN(CC)CCCNc1cc2c(nn1)-c1ccccc1CCC2` [SR 95818 A] the same measures were 12000 nM, 240 nM, 50 and 7 mg/kg.
For `CN(C)CCNc1cc2c(nn1)-c1cc([N+](=O)[O-])ccc1CCC2` [SR 44681 A] the same measures were 9000 nM, 260 nM, 35 and 1 mg/kg.
Compound `CCN(CC)CCCNc1cc2c(nn1)-c1ccccc1CC2.Cl.Cl` [SR 95746 A, 3-(3-Diethylaminopropylamino)-5,6-dihydrobenzo[h]-cinnoline dihydrochloride] had an IC50 in assay [1] of 25000 nM. For the same compound, in assay [2], the IC50 came out at 1500 nM and the “r = (M2 /M1)” value was determined as 17. In addition, the ED50 in assay [3] fell in the range of 10 to 30 mg/kg.
Take `Cl.Cl.c1ccc2c(c1)ccc1cc(NCCN3CCOCC3)nnc12` [SR 95679 A, 3-(2-Morpholinoethylamino)benzo[h]cinnoline dihydrochloride]: the half-maximal inhibitory concentration (IC50) in assay [1] was 100000 nM and > 100000 nM; in assay [2] it was 3100 nM. Besides, the “r = (M2 /M1)” value in assay [2] (dihydrochloride) is 32 and > 32. Besides, the ED50 in assay [3] worked out at 10 mg/kg.

Values taken from patent US4977152A, “Novel tricyclic derivatives which are agonists of cholinergic receptors, and drugs in which they are present” (Societe Anonyme: Sanofi, priority 1986, dated 1990).
